# Experimental data: patent US20250122191A1, “COMPOUNDS AS BCL-2 INHIBITORS” (Fochon Biosciences, Ltd, priority 2021, published 2025)
# How the values were obtained:
# Type in all cases: cell-based
# RS4;11-BCL-2 F104L cells = assay: Cell proliferation assay (MTS), RS4;11-BCL-2 F104L engineered cells; settings: Homo sapiens, 120 h, read-out: RS4, 11 BCL2-F104L IC50
# Source text: MTS testing kit was purchased from Promega (Madison, WI, USA). The RPMI-1640, Fetal bovine serum and Penicillin-Streptomycin were purchased from BI (Biological Industries, Beit Haemek, Israel). Puromycin was purchased from Beyotime (shanghai, China). Dimethyl sulfoxide (DMSO) was purchased from Sigma (St. Louis., MO, USA). RS4;11-BCL-2 G101V (Cobioer Lot. #: CBD2021063013P4), RS4;11-BCL-2 D103E (Cobioer Lot. #: CBD2021063013P4), RS4;11-BCL-2 D103Y (Cobioer Lot. #: CBD2022012101P4) and RS4;11-BCL-2 F104L (Cobioer Lot. #: CBD2021063014P4) cells were cultured in RPMI1640 supplemented with 1 ug/mL puromycin, 100 U/mL Penicillin-Streptomycin and 10% FBS.
# To investigate whether a compound is able to inhibit the activity of BCL-2 mutation in cells, a mechanism-based assay using engineered cell lines stably overexpressing BCL-2 mutation (RS4;11-BCL-2 G101V, RS4;11-BCL-2 D103E, RS4;11-BCL-2 D103Y, and RS4;11-BCL-2 F104L) was developed. In this assay, the inhibition of BCL-2 mutation was reflected by the inhibition of cell proliferation of engineered RS4;11 cells. Cells were plated into 96-well plates at optimized cell density (RS4;11-BCL-2 G101V: 5000 cells/well; RS4;11-BCL-2 D103E: 7500 cells/well; RS4;11-BCL-2 D103Y: 7500 cells/well; RS4;11-BCL-2 F104L: 5000 cells/well). Plates were incubated at 37° C., with 5% CO2 for 4 h (RS4;11-BCL-2 G101V, RS4;11-BCL-2 F104L) and 24 h (RS4;11-BCL-2 D103E, RS4;11-BCL-2 D103Y), respectively. Compounds were serially diluted and added to the plates with the final concentrations of 10000, 3333.3, 1111.1, 370.4, 123.5, 41.2, 13.7, 4.6 and 1.5 nM. Plates were incubated at 37° C., with 5% CO2 for 120 h (RS4; 11-BCL-2 G101V, RS4; 11-BCL-2 F104L) and 72 h (RS4;11-BCL-2 D103E, RS4;11-BCL-2 D103Y), respectively. 20 μl MTS was added into each well and the plates were incubated at 37° C., with 5% CO2 exactly for 2 h. The absorbance was measured by a microplate reader at 490 nm. IC50 values were calculated using GraphPad Prism 8.0 software.
# RS4;11-BCL-2 G101V cells = assay: Cell proliferation assay (MTS), RS4;11-BCL-2 G101V engineered cells; settings: Homo sapiens, 120 h, read-out: RS4, 11 BCL2-G101V IC50
# In short: (§1)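 Inhibition of mutant BCL-2 is inferred from reduced proliferation of RS4;11 cells stably overexpressing the mutant. Compounds are tested at 1.5–10000 nM for 120 h (G101V, F104L) or 72 h (D103E, D103Y), with MTS absorbance at 490 nm used to derive IC50.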
# Toledo cells = assay: Cell proliferation assay (MTS), Toledo cells; settings: Homo sapiens, 72 h
# In short: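 Toledo cells (RPMI-1640, 10% FBS) seeded at 30000 cells/well, rested 4 h, then exposed 72 h at 37 °C, 5% CO2 to compound at nine final concentrations, 1.5–10000 nM. Viability by MTS (2 h), absorbance at 490 nm. IC50 from the concentration-response.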
# RS4;11-BCL-2 D103E cells = assay: Cell proliferation assay (MTS), RS4;11-BCL-2 D103E engineered cells; settings: Homo sapiens, 72 h, read-out: RS4, 11 BCL2-D103E IC50
# In short: as §1
SMILES,IC50 (RS4;11-BCL-2 F104L cells) [nM],IC50 (RS4;11-BCL-2 G101V cells) [nM],IC50 (Toledo cells) [nM],IC50 (RS4;11-BCL-2 D103E cells) [nM]
"COc1cc(CN2CCC(N3CC4(CCN(c5ccc(C(=O)NS(=O)(=O)c6cnc(NC[C@H]7CC[C@](C)(O)CC7)c([N+](=O)[O-])c6)c(Oc6cc7c(F)c[nH]c7nc6OC)c5)CC4)C3)[C@H](c3ccccc3C(C)C)C2)ccn1 (single isomer, unassigned) [Example 363, 2-((3-fluoro-6-methoxy-1H-pyrrolo[2,3-b]pyridin-5-yl)oxy)-N-((6-((((1r,4r)-4-hydroxy-4-methylcyclohexyl)methyl)amino)-5-nitropyridin-3-yl)sulfonyl)-4-(2-(3-(2-isopropylphenyl)-1-((2-methoxypyridin-4-yl)methyl)piperidin-4-yl)-2,7-diazaspiro[3.5]nonan-7-yl)benzamide]",1,–,–,–
"COc1ccc(CN2CCC(N3CC4(CCN(c5ccc(C(=O)NS(=O)(=O)c6cnc(NC[C@H]7CC[C@](C)(O)CC7)c([N+](=O)[O-])c6)c(Oc6cc7c(F)c[nH]c7nc6OC)c5)CC4)C3)C(c3ccccc3C(C)C)C2)cc1 (some centres unmarked) [Example 19, 2-((3-fluoro-6-methoxy-1H-pyrrolo[2,3-b]pyridin-5-yl)oxy)-N-((6-((((1r,4r)-4-hydroxy-4-methylcyclohexyl)methyl)amino)-5-nitropyridin-3-yl)sulfonyl)-4-(2-(3-(2-isopropylphenyl)-1-(4-methoxybenzyl)piperidin-4-yl)-2,7-diazaspiro[3.5]nonan-7-yl)benzamide]",1,–,–,–
"CCOc1nc2[nH]cc(F)c2cc1Oc1cc(N2CCC3(CC2)CN(C2CCN(Cc4ccc(OC)cc4)CC2c2ccccc2C(C)C)C3)ccc1C(=O)NS(=O)(=O)c1cnc(NC[C@H]2CC[C@](C)(O)CC2)c([N+](=O)[O-])c1 (some centres unmarked) [Example 20, 2-((6-ethoxy-3-fluoro-1H-pyrrolo[2,3-b]pyridin-5-yl)oxy)-N-((6-((((1r,4r)-4-hydroxy-4-methylcyclohexyl)methyl)amino)-5-nitropyridin-3-yl)sulfonyl)-4-(2-(3-(2-isopropylphenyl)-1-(4-methoxybenzyl)piperidin-4-yl)-2,7-diazaspiro[3.5]nonan-7-yl)benzamide]",3,–,–,–
"COc1cc(CN2CCN(C3CC4(CCN(c5ccc(C(=O)NS(=O)(=O)c6cnc(NC[C@H]7CC[C@](C)(O)CC7)c([N+](=O)[O-])c6)c(Oc6cc7c(F)c[nH]c7nc6OC)c5)CC4)C3)[C@H](c3ccccc3C(C)C)C2)cc(C)n1 [Example 55, 2-((3-fluoro-6-methoxy-1H-pyrrolo[2,3-b]pyridin-5-yl)oxy)-N-((6-((((1r,4r)-4-hydroxy-4-methylcyclohexyl)methyl)amino)-5-nitropyridin-3-yl)sulfonyl)-4-(2-((R)-2-(2-isopropylphenyl)-4-((2-methoxy-6-methylpyridin-4-yl)methyl)piperazin-1-yl)-7-azaspiro[3.5]nonan-7-yl)benzamide]",1,1,–,–
"COc1cc(CN2CCN(C3CC4(CCN(c5ccc(C(=O)NS(=O)(=O)c6cnc(NC[C@H]7CC[C@](C)(O)CC7)c([N+](=O)[O-])c6)c(Oc6cc7c(F)c[nH]c7nc6OC)c5)CC4)C3)[C@H](c3ccccc3C(C)C)C2)cc(C#N)n1 [Example 56, 4-(2-((R)-4-((2-cyano-6-methoxypyridin-4-yl)methyl)-2-(2-isopropylphenyl)piperazin-1-yl)-7-azaspiro[3.5]nonan-7-yl)-2-((3-fluoro-6-methoxy-1H-pyrrolo[2,3-b]pyridin-5-yl)oxy)-N-((6-((((1r,4r)-4-hydroxy-4-methylcyclohexyl)methyl)amino)-5-nitropyridin-3-yl)sulfonyl)benzamide]",3,2,–,–
"COc1cc(CN2CCN(C3CC4(CCN(c5ccc(C(=O)NS(=O)(=O)c6cnc(NC[C@H]7CC[C@](C)(O)CC7)c([N+](=O)[O-])c6)c(Oc6cc7c(F)c[nH]c7nc6OC)c5)CC4)C3)[C@H](c3ccccc3C(C)C)C2)cc(N)n1 [Example 57, 4-(2-((R)-4-((2-amino-6-methoxypyridin-4-yl)methyl)-2-(2-isopropylphenyl)piperazin-1-yl)-7-azaspiro[3.5]nonan-7-yl)-2-((3-fluoro-6-methoxy-1H-pyrrolo[2,3-b]pyridin-5-yl)oxy)-N-((6-((((1r,4r)-4-hydroxy-4-methylcyclohexyl)methyl)amino)-5-nitropyridin-3-yl)sulfonyl)benzamide]",1,1,–,–
"COc1ccc(CN2CCN(C3CC4(CCN(c5ccc(C(=O)NS(=O)(=O)c6cnc(NC[C@H]7CC[C@](C)(O)CC7)c([N+](=O)[O-])c6)c(Oc6cnc7[nH]ccc7c6)c5)CC4)C3)[C@H](c3ccccc3C(C)C)C2)cc1 [Example 61, 2-((1H-pyrrolo[2,3-b]pyridin-5-yl)oxy)-N-((6-((((1r,4r)-4-hydroxy-4-methylcyclohexyl)methyl)amino)-5-nitropyridin-3-yl)sulfonyl)-4-(2-((R)-2-(2-isopropylphenyl)-4-(4-methoxybenzyl)piperazin-1-yl)-7-azaspiro[3.5]nonan-7-yl)benzamide]",1,–,–,–
"COc1cc(CN2CCN(C3CC4(CCN(c5ccc(C(=O)NS(=O)(=O)c6cnc(NC[C@H]7CC[C@](C)(O)CC7)c([N+](=O)[O-])c6)c(Oc6cc7c(F)c[nH]c7nc6OC)c5)CC4)C3)[C@H](c3ccccc3C(C)C)C2)cc(SC)n1 [Example 63, 2-((3-fluoro-6-methoxy-1H-pyrrolo[2,3-b]pyridin-5-yl)oxy)-N-((6-((((1r,4r)-4-hydroxy-4-methylcyclohexyl)methyl)amino)-5-nitropyridin-3-yl)sulfonyl)-4-(2-((R)-2-(2-isopropylphenyl)-4-((2-methoxy-6-(methylthio)pyridin-4-yl)methyl)piperazin-1-yl)-7-azaspiro[3.5]nonan-7-yl)benzamide]",1,1,–,–
"CCOc1nc2[nH]cc(F)c2cc1Oc1cc(N2CCC3(CC2)CC(N2CCOC[C@H]2c2ccccc2C(C)C)C3)ccc1C(=O)NS(=O)(=O)c1cnc(NC[C@H]2CC[C@](C)(O)CC2)c([N+](=O)[O-])c1 [Example 88, 2-((6-ethoxy-3-fluoro-1H-pyrrolo[2,3-b]pyridin-5-yl)oxy)-N-((6-((((1r,4r)-4-hydroxy-4-methylcyclohexyl)methyl)amino)-5-nitropyridin-3-yl)sulfonyl)-4-(2-((R)-3-(2-isopropylphenyl)morpholino)-7-azaspiro[3.5]nonan-7-yl)benzamide]",1,–,–,–
"CCOc1nc2[nH]cc(F)c2cc1Oc1cc(N2CCC3(CC2)CC(N2CCC[C@H]2c2ccccc2C(C)C)C3)ccc1C(=O)NS(=O)(=O)c1cnc(NC[C@H]2CC[C@](C)(O)CC2)c([N+](=O)[O-])c1 [Example 90, 2-((6-ethoxy-3-fluoro-1H-pyrrolo[2,3-b]pyridin-5-yl)oxy)-N-((6-((((1r,4r)-4-hydroxy-4-methylcyclohexyl)methyl)amino)-5-nitropyridin-3-yl)sulfonyl)-4-(2-((S)-2-(2-isopropylphenyl)pyrrolidin-1-yl)-7-azaspiro[3.5]nonan-7-yl)benzamide]",1,–,–,–
"COc1ccc(CN2CCN(C3CC4(CCN(c5ccc(C(=O)NS(=O)(=O)c6cnc(NC[C@H]7CC[C@](C)(O)CC7)c([N+](=O)[O-])c6)c(Oc6cnc7[nH]cc(F)c7c6)c5)CC4)C3)[C@H](c3ccccc3C(C)C)C2)cn1 [Example 252, 2-((3-fluoro-1H-pyrrolo[2,3-b]pyridin-5-yl)oxy)-N-((6-((((1r,4r)-4-hydroxy-4-methylcyclohexyl)methyl)amino)-5-nitropyridin-3-yl)sulfonyl)-4-(2-((R)-2-(2-isopropylphenyl)-4-((6-methoxypyridin-3-yl)methyl)piperazin-1-yl)-7-azaspiro[3.5]nonan-7-yl)benzamide]",–,1,1,1
